Assay results published in the supplement of paper PMC12463676, “Small-molecule dissolution of stress granules by redox modulation benefits ALS models” (Nature Chemical Biology, 2025).

Legend:
potassium arsenate = compound: O=[As]([O-])(O)O.[K+] [potassium arsenate]; experiment: thermal stability z-score vs DMSO; higher = more thermally stabilized by treatment; conditions: HeLa; arsenate concentration 1 mM
Experimental: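 Cellular thermal proteome profiling in HeLa cells treated with 1 mM arsenate for 1 h (DMSO pretreatment), heated to ten temperatures (37-66.3 °C). Soluble protein was quantified by TMT mass spectrometry relative to DMSO controls; the thermal stability score was transformed to a z-score; mean of n = 3 experiments.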

lipoamide = compound: NC(=O)CCCCC1CCSS1 [lipoamide]; experiment: as above; conditions: HeLa, lipoamide concentration 100 µM
Experimental: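 Cellular thermal proteome profiling in HeLa cells. Cells were treated with 100 µM lipoamide for 1 h, with or without 1 mM arsenate for a further 1 h, then heated to ten temperatures (37-66.3 °C), and soluble protein was quantified by TMT mass spectrometry relative to 0.1% DMSO controls. The thermal stability score (sum of log2 fold changes minus the abundance score) was transformed to a z-score; mean of n = 3 experiments.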

[1] = arsenate co-treatment: 1 mM arsenate 1 h
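Further: each temperature applied for 3 min, abundance score taken as mean log2 fold change at the two lowest temperatures, z-score obtained by mean subtraction and division by SD.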

Sequence of UniProt P35610 (P35610 whole entry): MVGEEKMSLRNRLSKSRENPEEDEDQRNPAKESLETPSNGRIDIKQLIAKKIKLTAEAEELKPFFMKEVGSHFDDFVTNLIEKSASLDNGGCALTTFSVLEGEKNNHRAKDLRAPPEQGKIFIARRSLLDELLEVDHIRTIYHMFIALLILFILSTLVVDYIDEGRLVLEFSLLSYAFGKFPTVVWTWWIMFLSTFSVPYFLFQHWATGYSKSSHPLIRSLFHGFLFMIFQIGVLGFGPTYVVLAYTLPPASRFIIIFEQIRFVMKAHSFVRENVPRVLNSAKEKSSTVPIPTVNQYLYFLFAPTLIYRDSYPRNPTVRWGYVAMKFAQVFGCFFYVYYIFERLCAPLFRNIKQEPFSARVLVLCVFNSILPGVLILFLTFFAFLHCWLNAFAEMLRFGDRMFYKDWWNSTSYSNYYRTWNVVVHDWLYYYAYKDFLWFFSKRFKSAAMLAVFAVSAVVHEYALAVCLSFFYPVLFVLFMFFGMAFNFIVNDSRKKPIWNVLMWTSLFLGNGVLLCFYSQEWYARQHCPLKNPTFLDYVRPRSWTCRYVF
Sequence of UniProt Q14240 (Q14240 whole entry): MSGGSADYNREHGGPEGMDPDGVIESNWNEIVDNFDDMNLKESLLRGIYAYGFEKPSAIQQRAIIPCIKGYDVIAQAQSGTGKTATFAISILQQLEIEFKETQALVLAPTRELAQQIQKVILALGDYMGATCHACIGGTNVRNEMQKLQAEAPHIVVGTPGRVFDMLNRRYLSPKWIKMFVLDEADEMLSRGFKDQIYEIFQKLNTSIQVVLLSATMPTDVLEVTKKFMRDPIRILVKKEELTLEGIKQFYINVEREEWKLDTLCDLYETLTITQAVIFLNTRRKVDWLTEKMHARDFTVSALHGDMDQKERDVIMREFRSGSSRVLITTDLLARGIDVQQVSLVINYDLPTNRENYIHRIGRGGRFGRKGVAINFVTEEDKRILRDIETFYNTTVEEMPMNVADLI
Sequence of UniProt Q13576 (Q13576 whole entry): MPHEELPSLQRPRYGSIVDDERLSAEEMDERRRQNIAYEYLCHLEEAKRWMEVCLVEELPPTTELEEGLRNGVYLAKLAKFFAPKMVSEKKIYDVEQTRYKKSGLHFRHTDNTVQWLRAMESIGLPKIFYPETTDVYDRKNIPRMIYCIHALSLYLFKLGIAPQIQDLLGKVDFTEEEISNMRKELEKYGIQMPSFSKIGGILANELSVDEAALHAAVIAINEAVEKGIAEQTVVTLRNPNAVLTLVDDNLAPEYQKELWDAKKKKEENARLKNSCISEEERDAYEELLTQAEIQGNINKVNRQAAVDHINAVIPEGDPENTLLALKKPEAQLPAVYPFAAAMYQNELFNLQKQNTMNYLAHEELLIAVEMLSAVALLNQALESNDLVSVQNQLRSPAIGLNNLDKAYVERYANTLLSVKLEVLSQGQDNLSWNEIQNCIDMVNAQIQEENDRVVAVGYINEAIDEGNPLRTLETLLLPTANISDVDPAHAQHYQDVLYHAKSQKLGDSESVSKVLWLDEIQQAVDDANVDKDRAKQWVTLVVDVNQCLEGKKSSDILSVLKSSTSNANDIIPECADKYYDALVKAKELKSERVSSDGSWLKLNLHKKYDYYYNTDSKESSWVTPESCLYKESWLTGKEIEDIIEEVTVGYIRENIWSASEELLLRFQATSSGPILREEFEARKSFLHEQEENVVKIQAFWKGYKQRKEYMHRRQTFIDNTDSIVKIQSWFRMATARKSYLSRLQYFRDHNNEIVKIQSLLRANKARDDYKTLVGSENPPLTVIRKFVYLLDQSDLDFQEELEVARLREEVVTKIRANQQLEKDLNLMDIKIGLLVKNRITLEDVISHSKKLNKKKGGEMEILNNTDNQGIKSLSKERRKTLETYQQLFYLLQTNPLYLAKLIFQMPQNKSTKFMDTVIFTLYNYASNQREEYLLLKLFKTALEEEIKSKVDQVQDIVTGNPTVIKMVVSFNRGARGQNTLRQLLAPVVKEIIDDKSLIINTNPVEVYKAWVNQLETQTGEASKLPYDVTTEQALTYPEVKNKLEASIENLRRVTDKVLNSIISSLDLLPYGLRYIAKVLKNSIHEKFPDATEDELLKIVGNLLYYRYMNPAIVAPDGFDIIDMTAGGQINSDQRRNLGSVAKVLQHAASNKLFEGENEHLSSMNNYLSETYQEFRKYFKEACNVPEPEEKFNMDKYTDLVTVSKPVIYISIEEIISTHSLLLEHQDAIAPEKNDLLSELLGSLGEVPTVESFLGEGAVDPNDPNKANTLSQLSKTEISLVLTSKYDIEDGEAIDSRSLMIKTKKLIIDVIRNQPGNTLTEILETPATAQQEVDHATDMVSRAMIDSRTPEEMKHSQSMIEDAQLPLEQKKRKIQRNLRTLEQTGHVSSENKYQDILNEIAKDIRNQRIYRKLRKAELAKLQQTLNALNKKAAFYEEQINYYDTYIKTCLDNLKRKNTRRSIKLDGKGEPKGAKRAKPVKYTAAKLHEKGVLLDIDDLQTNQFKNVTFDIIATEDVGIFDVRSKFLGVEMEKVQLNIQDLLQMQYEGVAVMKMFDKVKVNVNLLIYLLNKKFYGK
Sequence of UniProt Q8N4Q1 (Q8N4Q1 whole entry): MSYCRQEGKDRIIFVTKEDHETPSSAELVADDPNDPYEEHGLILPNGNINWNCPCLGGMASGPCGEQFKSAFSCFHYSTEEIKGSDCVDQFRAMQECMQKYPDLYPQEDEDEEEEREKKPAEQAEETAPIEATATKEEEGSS
Sequence of UniProt Q13795 (Q13795 whole entry): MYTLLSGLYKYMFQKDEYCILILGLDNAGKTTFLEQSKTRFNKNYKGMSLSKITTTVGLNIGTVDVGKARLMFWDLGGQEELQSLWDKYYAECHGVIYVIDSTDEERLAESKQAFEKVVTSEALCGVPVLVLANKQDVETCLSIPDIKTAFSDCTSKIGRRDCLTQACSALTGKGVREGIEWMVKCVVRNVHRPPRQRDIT
Sequence of UniProt Q96HS1 (Q96HS1 whole entry): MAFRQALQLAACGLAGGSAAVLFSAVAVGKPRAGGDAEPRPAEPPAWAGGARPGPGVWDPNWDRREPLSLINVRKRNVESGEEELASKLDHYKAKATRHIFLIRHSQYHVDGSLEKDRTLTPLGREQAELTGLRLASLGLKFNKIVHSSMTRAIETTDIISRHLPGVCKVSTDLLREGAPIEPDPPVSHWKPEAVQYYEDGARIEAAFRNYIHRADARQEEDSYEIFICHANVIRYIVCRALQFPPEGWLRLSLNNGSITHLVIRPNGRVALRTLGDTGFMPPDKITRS
Sequence of UniProt P58546 (P58546 whole entry): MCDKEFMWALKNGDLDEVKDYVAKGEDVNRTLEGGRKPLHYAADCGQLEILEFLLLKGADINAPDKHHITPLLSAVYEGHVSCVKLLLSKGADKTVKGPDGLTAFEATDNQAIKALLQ
Sequence of UniProt P10619 (P10619 whole entry): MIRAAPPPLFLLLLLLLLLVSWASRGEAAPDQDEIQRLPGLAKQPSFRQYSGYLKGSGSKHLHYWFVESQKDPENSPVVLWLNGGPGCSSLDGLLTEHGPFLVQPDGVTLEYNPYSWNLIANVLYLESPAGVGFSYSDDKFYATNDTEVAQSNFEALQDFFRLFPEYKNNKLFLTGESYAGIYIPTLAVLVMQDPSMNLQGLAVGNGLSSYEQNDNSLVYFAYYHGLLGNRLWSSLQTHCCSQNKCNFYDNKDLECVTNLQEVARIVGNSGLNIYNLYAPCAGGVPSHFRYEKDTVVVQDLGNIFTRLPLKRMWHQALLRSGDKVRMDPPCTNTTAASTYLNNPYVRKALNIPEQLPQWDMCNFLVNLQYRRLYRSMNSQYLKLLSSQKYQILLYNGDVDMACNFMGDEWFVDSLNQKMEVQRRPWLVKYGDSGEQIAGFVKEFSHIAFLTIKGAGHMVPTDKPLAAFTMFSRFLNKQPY
Sequence of UniProt Q96HH9 (Q96HH9 whole entry): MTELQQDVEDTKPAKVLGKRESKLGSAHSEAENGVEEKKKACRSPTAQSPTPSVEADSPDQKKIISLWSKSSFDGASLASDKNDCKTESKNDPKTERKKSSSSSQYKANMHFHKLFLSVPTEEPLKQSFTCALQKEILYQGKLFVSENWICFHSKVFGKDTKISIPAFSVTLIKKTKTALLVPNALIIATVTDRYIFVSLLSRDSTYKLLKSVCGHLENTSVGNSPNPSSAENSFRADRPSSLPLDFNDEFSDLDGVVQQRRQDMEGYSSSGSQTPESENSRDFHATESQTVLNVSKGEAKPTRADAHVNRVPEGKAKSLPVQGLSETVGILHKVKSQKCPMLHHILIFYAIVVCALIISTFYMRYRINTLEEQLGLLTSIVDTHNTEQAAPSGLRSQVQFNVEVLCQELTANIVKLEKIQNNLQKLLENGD
Sequence of UniProt Q96GQ5 (Q96GQ5 whole entry): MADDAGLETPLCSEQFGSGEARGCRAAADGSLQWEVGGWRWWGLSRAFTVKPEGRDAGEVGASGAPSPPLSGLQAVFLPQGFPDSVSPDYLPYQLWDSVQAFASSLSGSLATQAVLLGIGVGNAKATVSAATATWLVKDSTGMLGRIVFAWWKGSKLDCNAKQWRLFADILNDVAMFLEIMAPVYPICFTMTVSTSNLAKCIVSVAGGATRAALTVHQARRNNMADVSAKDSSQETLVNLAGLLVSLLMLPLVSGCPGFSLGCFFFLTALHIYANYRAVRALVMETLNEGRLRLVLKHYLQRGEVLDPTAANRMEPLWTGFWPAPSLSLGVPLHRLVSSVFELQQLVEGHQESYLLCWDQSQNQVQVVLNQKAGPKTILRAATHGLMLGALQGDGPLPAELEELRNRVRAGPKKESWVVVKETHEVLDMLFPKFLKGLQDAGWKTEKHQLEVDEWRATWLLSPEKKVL
Sequence of UniProt O95456 (O95456 whole entry): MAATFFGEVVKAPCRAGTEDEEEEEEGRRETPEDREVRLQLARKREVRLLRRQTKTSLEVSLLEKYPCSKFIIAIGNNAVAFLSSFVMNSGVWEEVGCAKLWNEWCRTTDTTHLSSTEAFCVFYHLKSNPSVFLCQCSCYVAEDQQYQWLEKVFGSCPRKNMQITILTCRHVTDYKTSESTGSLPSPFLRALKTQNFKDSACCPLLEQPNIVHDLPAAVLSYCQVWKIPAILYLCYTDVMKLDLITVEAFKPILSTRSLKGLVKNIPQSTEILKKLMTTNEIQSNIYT

In the case of TRMT6 (UniProt Q9UJA5), the thermal stability z-score (potassium arsenate) was 0.0561, the thermal stability z-score (lipoamide; [1]) was 0.481 and the thermal stability z-score (lipoamide; arsenate co-treatment: none) was 0.683.
TCP1 (UniProt P17987) gave a thermal stability z-score (potassium arsenate) of -0.229, a thermal stability z-score (lipoamide; [1]) of -0.0358 and a thermal stability z-score (lipoamide; arsenate co-treatment: none) of -0.0779.
Target HABP4 (UniProt Q5JVS0) has a thermal stability z-score (potassium arsenate) of -0.0745, a thermal stability z-score (lipoamide; [1]) of 0.171 and a thermal stability z-score (lipoamide; arsenate co-treatment: none) of -0.0888.
In the case of MVB12A (UniProt Q96EY5), the thermal stability z-score (potassium arsenate) was 0.35, the thermal stability z-score (lipoamide; [1]) was 0.652 and the thermal stability z-score (lipoamide; arsenate co-treatment: none) was -0.0184.
Work on PGAM5 (UniProt Q96HS1) yielded a thermal stability z-score (potassium arsenate) of 0.701, a thermal stability z-score (lipoamide; [1]) of 0.0875 and a thermal stability z-score (lipoamide; arsenate co-treatment: none) of 0.709.
CALCOCO1 (UniProt Q9P1Z2) gave a thermal stability z-score (potassium arsenate) of 0.0728, a thermal stability z-score (lipoamide; [1]) of 0.179 and a thermal stability z-score (lipoamide; arsenate co-treatment: none) of 0.0847.
TYSND1 (UniProt Q2T9J0) showed a thermal stability z-score (potassium arsenate) of -0.646, a thermal stability z-score (lipoamide; [1]) of -0.12 and a thermal stability z-score (lipoamide; arsenate co-treatment: none) of -0.377.
Work on IQGAP2 (UniProt Q13576) yielded a thermal stability z-score (potassium arsenate) of -0.209, a thermal stability z-score (lipoamide; [1]) of -0.121 and a thermal stability z-score (lipoamide; arsenate co-treatment: none) of -0.159.
Target TBX3 (UniProt O15119) has a thermal stability z-score (potassium arsenate) of 0.206, a thermal stability z-score (lipoamide; [1]) of 0.163 and a thermal stability z-score (lipoamide; arsenate co-treatment: none) of -0.0268.
Work on GRAMD3 (UniProt Q96HH9) yielded a thermal stability z-score (potassium arsenate) of -0.0476, a thermal stability z-score (lipoamide; [1]) of 0.155 and a thermal stability z-score (lipoamide; arsenate co-treatment: none) of 0.0561.
For AQR (UniProt O60306), the thermal stability z-score (potassium arsenate) was -0.643, the thermal stability z-score (lipoamide; [1]) was 0.37 and the thermal stability z-score (lipoamide; arsenate co-treatment: none) was 0.297.
In the case of SOAT1 (UniProt P35610), the thermal stability z-score (potassium arsenate) was 0.731, the thermal stability z-score (lipoamide; [1]) was -1.32 and the thermal stability z-score (lipoamide; arsenate co-treatment: none) was -0.546.
HDGF (UniProt P51858) gave a thermal stability z-score (potassium arsenate) of 0.19, a thermal stability z-score (lipoamide; [1]) of 0.026 and a thermal stability z-score (lipoamide; arsenate co-treatment: none) of 0.439.
With CHCHD4 (UniProt Q8N4Q1) the thermal stability z-score (potassium arsenate) was -0.236, the thermal stability z-score (lipoamide; [1]) was 0.0185 and the thermal stability z-score (lipoamide; arsenate co-treatment: none) was 0.497.
For MTPN (UniProt P58546), the thermal stability z-score (potassium arsenate) was -0.432, the thermal stability z-score (lipoamide; [1]) was 0.382 and the thermal stability z-score (lipoamide; arsenate co-treatment: none) was 0.145.
G6PD (UniProt P11413) gave a thermal stability z-score (potassium arsenate) of 0.535, a thermal stability z-score (lipoamide; [1]) of 0.218 and a thermal stability z-score (lipoamide; arsenate co-treatment: none) of 0.206.
TAOK3 (UniProt Q9H2K8) gave a thermal stability z-score (potassium arsenate) of 0.0629, a thermal stability z-score (lipoamide; [1]) of 0.238 and a thermal stability z-score (lipoamide; arsenate co-treatment: none) of 0.142.
ANAPC1 (UniProt Q9H1A4) gave a thermal stability z-score (potassium arsenate) of 0.0453, a thermal stability z-score (lipoamide; [1]) of 0.11 and a thermal stability z-score (lipoamide; arsenate co-treatment: none) of 0.139.
With CTSA (UniProt P10619) the thermal stability z-score (potassium arsenate) was -0.0364, the thermal stability z-score (lipoamide; [1]) was -0.264 and the thermal stability z-score (lipoamide; arsenate co-treatment: none) was -0.283.
Target C16ORF58 (UniProt Q96GQ5) has a thermal stability z-score (potassium arsenate) of -0.192, a thermal stability z-score (lipoamide; [1]) of -0.446 and a thermal stability z-score (lipoamide; arsenate co-treatment: none) of -0.183.
KCTD12 (UniProt Q96CX2) gave a thermal stability z-score (potassium arsenate) of 1.37, a thermal stability z-score (lipoamide; [1]) of 0.867 and a thermal stability z-score (lipoamide; arsenate co-treatment: none) of 0.7.
With PEX13 (UniProt Q92968) the thermal stability z-score (potassium arsenate) was 0.284, the thermal stability z-score (lipoamide; [1]) was 0.444 and the thermal stability z-score (lipoamide; arsenate co-treatment: none) was 0.834.
SPAG5 (UniProt Q96R06) was tested, and the thermal stability z-score (potassium arsenate) was -0.162, the thermal stability z-score (lipoamide; [1]) was -0.791 and the thermal stability z-score (lipoamide; arsenate co-treatment: none) was -0.122.
NCDN (UniProt Q9UBB6) showed a thermal stability z-score (potassium arsenate) of 0.288, a thermal stability z-score (lipoamide; [1]) of 0.164 and a thermal stability z-score (lipoamide; arsenate co-treatment: none) of -0.266.
SNAP25 (UniProt P60880) was tested, and the thermal stability z-score (potassium arsenate) was -0.723, the thermal stability z-score (lipoamide; [1]) was 0.86 and the thermal stability z-score (lipoamide; arsenate co-treatment: none) was 0.512.
For ARFRP1 (UniProt Q13795), the thermal stability z-score (potassium arsenate) was -0.148, the thermal stability z-score (lipoamide; [1]) was 0.241 and the thermal stability z-score (lipoamide; arsenate co-treatment: none) was 0.279.
SNX2 (UniProt O60749) was tested, and the thermal stability z-score (potassium arsenate) was 0.364, the thermal stability z-score (lipoamide; [1]) was -0.0255 and the thermal stability z-score (lipoamide; arsenate co-treatment: none) was 0.0641.
Work on WDSUB1 (UniProt Q8N9V3) yielded a thermal stability z-score (potassium arsenate) of 0.867, a thermal stability z-score (lipoamide; [1]) of 0.698 and a thermal stability z-score (lipoamide; arsenate co-treatment: none) of 0.878.
In the case of RDH13 (UniProt Q8NBN7), the thermal stability z-score (potassium arsenate) was 0.307, the thermal stability z-score (lipoamide; [1]) was -0.0891 and the thermal stability z-score (lipoamide; arsenate co-treatment: none) was -0.278.
With EIF4A2 (UniProt Q14240) the thermal stability z-score (potassium arsenate) was 0.658, the thermal stability z-score (lipoamide; [1]) was 1.14 and the thermal stability z-score (lipoamide; arsenate co-treatment: none) was 0.893.
ATL2 (UniProt Q8NHH9) gave a thermal stability z-score (potassium arsenate) of 0.103, a thermal stability z-score (lipoamide; [1]) of -0.223 and a thermal stability z-score (lipoamide; arsenate co-treatment: none) of -0.0585.
CBL (UniProt P22681) gave a thermal stability z-score (potassium arsenate) of -0.368, a thermal stability z-score (lipoamide; [1]) of 0.255 and a thermal stability z-score (lipoamide; arsenate co-treatment: none) of 0.154.
With PSMG1 (UniProt O95456) the thermal stability z-score (potassium arsenate) was 4.18, the thermal stability z-score (lipoamide; [1]) was 1.07 and the thermal stability z-score (lipoamide; arsenate co-treatment: none) was 0.507.
Work on AP2S1 (UniProt P53680) yielded a thermal stability z-score (potassium arsenate) of 0.767, a thermal stability z-score (lipoamide; [1]) of -0.111 and a thermal stability z-score (lipoamide; arsenate co-treatment: none) of -0.0691.
With HK2 (UniProt P52789) the thermal stability z-score (potassium arsenate) was 0.715, the thermal stability z-score (lipoamide; [1]) was -0.636 and the thermal stability z-score (lipoamide; arsenate co-treatment: none) was -0.168.
